Source: patent US8309558B2, “Compounds for the treatment of hepatitis C” (Bristol-Myers Squibb Company, priority 2008, dated 2012)

Legend:
[1] = biological target: T1, HCV NS5B RdRp genotype 1b (Hepatitis C virus genotype 1b, UniProt Q9WMX2); assay: Standard HCV NS5B RdRp enzyme assay; format: biochemical; conditions: Table 1a; HCV NS5B RdRp genotype 1b; read-out: IC50
T1 construct: The protein was expressed with an 18 amino acid C-terminal truncation to enhance the solubility; made in house; host or cells: E. coli BL21(DE3), pET21a vector
In short: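 C-terminally truncated (18 aa) genotype 1b NS5B from E. coli, 28 nM, with 6 nM polyA template, 180 nM biotinylated oligo-dT12 primer and 3H-UTP (0.29 μM total UTP). Hepes pH 7.5 buffer with 2% DMSO; 60 min at 30° C. EDTA stop, SPA read-out; IC50 from seven concentrations by four-parameter fit.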

[2] = tested on: HCV replicon cells; assay: HCV replicon FRET / luciferase assay (96-well plates); format: cell-based; conditions: Hepatitis C virus, Table 1a; HCV replicon; read-out: EC50
In short: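 Replicon cells + titrated cpds, 37 °C CO2. Alamar blue for cytotoxicity, PBS rinse, then lysis reagent w/ 20 μM FRET peptide (EDANS/DABCYL), 150 mM NaCl; kinetic read ex340/em490, 20 cycles. Alt: Dual-Glo luciferase. EC50 = 50% drop in FRET/luciferase signal after background subtraction.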

T1 sequence (Q9WMX2 2420-2992): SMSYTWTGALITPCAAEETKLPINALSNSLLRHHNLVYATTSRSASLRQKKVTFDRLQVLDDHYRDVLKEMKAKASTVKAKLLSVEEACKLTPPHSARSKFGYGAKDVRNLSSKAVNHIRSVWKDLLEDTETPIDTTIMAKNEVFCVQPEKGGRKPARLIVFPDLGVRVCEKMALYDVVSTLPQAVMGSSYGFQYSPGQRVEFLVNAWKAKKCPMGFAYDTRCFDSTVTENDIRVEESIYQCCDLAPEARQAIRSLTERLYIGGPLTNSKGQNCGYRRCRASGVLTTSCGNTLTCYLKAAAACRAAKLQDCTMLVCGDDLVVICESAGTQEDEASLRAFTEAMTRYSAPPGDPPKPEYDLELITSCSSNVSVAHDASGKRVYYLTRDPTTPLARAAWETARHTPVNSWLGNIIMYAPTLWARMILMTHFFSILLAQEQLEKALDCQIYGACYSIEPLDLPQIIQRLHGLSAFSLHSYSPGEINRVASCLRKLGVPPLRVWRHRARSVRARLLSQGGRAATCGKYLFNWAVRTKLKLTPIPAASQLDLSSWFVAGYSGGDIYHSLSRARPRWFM

Row | SMILES | IC50 [1] [µM] | EC50 [2] [µM]
1 | CNC(=O)c1c(-c2ccc(F)cc2)oc2ccc(-c3cccc(C(=O)NCc4ccc(F)cc4)c3)cc12 | < 0.25 | < 0.25
2 | CNC(=O)c1c(-c2ccc(F)cc2)oc2ccc(-c3cccc(C(=O)NC4(CO)CCCC4)c3)cc12 | < 0.25 | < 0.25
3 | CNC(=O)c1c(-c2ccc(F)cc2)oc2ccc(-c3cccc(C(=O)NCc4cccc(C)c4)c3)cc12 | < 0.25 | < 0.25
4 | CNC(=O)c1c(-c2ccc(F)cc2)oc2ccc(-c3cccc(C(=O)NCC(C)(C)C)c3)cc12 | < 0.25 | < 0.25
5 | CNC(=O)c1c(-c2ccc(F)cc2)oc2ccc(-c3cccc(C(=O)NCC4CC4)c3)cc12 | < 0.25 | < 0.25
6 | CCC(CC)NC(=O)c1cccc(-c2ccc3oc(-c4ccc(F)cc4)c(C(=O)NC)c3c2)c1 | < 0.25 | < 0.25
7 | CCC(C)NC(=O)c1cccc(-c2ccc3oc(-c4ccc(F)cc4)c(C(=O)NC)c3c2)c1 (stereo not drawn) | < 0.25 | < 0.25
8 | CNC(=O)c1c(-c2ccc(F)cc2)oc2ccc(-c3ccc(/C=C/C(=O)O)cc3)cc12 | 1 to 10 | 1 to 10
9 | CNC(=O)c1c(-c2ccc(F)cc2)oc2ccc(-c3cccc(NC(C)=O)c3)cc12 | 1 to 10 | 1 to 10
10 | CNC(=O)c1c(-c2ccc(F)cc2)oc2ccc(OCCOc3ccc(C(C)(C)C)cc3)cc12 | > 10 | 1 to 10
11 | CNC(=O)c1c(-c2ccc(F)cc2)oc2ccc(OCCCNC(=O)OC(C)(C)C)cc12 | 1 to 10 | 1 to 10
12 | CNC(=O)c1c(-c2ccc(F)cc2)oc2ccc(-c3ccc(F)cc3OCc3ccccc3)cc12 | > 10 | 1 to 10
13 | CNC(=O)c1c(-c2ccc(F)cc2)oc2ccc(-c3ccc(OC4CCCCO4)cc3)cc12 (stereo not drawn) | > 10 | 1 to 10
14 | CNC(=O)c1c(-c2ccc(F)cc2)oc2ccc(-c3cnc(OC)c(F)c3)cc12 | > 10 | 1 to 10
15 | CNC(=O)c1c(-c2ccc(F)cc2)oc2ccc(-c3ccc(S(=O)(=O)NC)cc3)cc12 | > 10 | 1 to 10
16 | CNC(=O)c1c(-c2ccc(F)cc2)oc2ccc(-c3cc(Cl)cnc3F)cc12 | > 10 | 1 to 10
17 | CNC(=O)c1c(-c2ccc(F)cc2)oc2ccc(-c3ccc(C(=O)N4CCCC4)cc3)cc12 | 1 to 10 | 1 to 10

Row | SMILES | IC50 [1] [µM] | EC50 [2] [µM]
18 | CNC(=O)c1c(-c2ccc(F)cc2)oc2ccc(-c3cc(CO)ccc3Cl)cc12 | > 10 | 1 to 10
19 | CC(C)Oc1cc2c(-c3ncn[nH]3)c(-c3ccc(F)cc3)oc2cc1N(C)S(C)(=O)=O | 0.25 to 1 | 1 to 10
20 | CNC(=O)c1c(-c2ccc(F)cc2)oc2ccc(-c3cccc(C(=O)OC(C)(C)C)c3)cc12 | 1 to 10 | 1 to 10
21 | CCN(CC)C(=O)c1cccc(-c2ccc3oc(-c4ccc(F)cc4)c(C(=O)NC)c3c2)c1 | 1 to 10 | 1 to 10
22 | CNC(=O)c1c(-c2ccc(F)cc2)oc2ccc(-c3cccc(C(=O)N(C)C)c3)cc12 | 1 to 10 | 1 to 10
23 | CNC(=O)c1c(-c2ccc(F)cc2)oc2ccc(-c3cccc(/C=C/C(=O)O)c3)cc12 | 0.25 to 1 | 1 to 10
24 | CNC(=O)c1c(-c2ccc(F)cc2)oc2ccc(-c3cccc(C(=O)N4CCC(C)CC4)c3)cc12 | 1 to 10 | 1 to 10
25 | CNC(=O)c1c(-c2ccc(F)cc2)oc2ccc(-c3cccc(C(=O)N4CCCCC4)c3)cc12 | 0.25 to 1 | 1 to 10
26 | CNC(=O)c1c(-c2ccc(F)cc2)oc2ccc(-c3cccc(C(=O)NCc4ccccc4O)c3)cc12 | 0.25 to 1 | 1 to 10
27 | CNC(=O)c1c(-c2ccc(F)cc2)oc2ccc(-c3cccc(C(=O)N4CCCC(O)C4)c3)cc12 (stereo not drawn) | 1 to 10 | 1 to 10
28 | CNC(=O)c1c(-c2ccc(F)cc2)oc2ccc(-c3cccc(C(=O)NCc4ccccc4N)c3)cc12 | 1 to 10 | 1 to 10
29 | CNC(=O)c1c(-c2ccc(F)cc2)oc2ccc(-c3cccc(C(=O)N(C)CCOC)c3)cc12 | 1 to 10 | 1 to 10
30 | C#CCNC(=O)c1cccc(-c2ccc3oc(-c4ccc(F)cc4)c(C(=O)NC)c3c2)c1 | 0.25 to 1 | 1 to 10
31 | CNC(=O)c1c(-c2ccc(F)cc2)oc2ccc(-c3cccc(C(=O)NCc4ccccc4F)c3)cc12 | 0.25 to 1 | 1 to 10
32 | CNC(=O)c1c(-c2ccc(F)cc2)oc2ccc(-c3cccc(C(=O)N4CCCC4C)c3)cc12 (stereo not drawn) | 0.25 to 1 | 1 to 10
33 | CNC(=O)c1c(-c2ccc(F)cc2)oc2ccc(-c3cccc(C(=O)N4CC[C@@H](O)C4)c3)cc12 | 1 to 10 | 1 to 10
